Experimental data as given in ChEMBL document CHEMBL1145633, “Inhibitors of the tyrosine kinase EphB4. Part 1: Structure-based design and optimization of a series of 2,4-bis-anilinopyrimidines” (Bioorg Med Chem Lett, 2008).
Converted amounts (≈) assume the structure as drawn.

Tests used:
Ephrin type-B receptor 4 = biological target: T1, Ephrin type-B receptor 4 (Homo sapiens, UniProt P54760); assay: Inhibition of EphB4
T1 sequence (P54760 whole entry): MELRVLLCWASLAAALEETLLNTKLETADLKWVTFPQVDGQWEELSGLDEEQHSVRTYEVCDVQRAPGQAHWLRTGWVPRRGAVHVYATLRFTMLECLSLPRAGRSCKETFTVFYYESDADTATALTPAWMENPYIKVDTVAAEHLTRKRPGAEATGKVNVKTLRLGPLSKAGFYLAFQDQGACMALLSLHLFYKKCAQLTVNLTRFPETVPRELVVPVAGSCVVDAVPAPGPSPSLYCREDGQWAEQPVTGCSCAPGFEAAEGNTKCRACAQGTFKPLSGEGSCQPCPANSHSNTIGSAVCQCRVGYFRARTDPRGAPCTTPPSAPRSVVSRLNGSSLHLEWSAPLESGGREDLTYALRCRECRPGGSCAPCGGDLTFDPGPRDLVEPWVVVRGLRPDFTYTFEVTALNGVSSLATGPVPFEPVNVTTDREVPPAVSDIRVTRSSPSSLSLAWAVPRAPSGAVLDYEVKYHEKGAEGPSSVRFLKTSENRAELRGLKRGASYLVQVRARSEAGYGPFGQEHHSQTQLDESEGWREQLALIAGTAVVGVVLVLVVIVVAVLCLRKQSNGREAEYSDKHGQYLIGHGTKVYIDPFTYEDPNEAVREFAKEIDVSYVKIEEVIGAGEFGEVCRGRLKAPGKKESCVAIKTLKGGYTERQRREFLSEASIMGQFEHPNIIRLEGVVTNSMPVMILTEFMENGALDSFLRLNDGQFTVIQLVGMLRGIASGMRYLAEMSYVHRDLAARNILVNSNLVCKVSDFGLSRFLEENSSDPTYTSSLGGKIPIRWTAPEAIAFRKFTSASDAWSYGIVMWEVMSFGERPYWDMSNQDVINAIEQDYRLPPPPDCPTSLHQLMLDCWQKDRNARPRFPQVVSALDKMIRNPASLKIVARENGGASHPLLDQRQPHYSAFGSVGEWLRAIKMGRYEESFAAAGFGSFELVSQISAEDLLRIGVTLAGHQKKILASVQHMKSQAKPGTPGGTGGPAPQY

Focal adhesion kinase 1 = Focal adhesion kinase 1 (Homo sapiens, UniProt Q05397); assay: Inhibition of FAK
Chain of Focal adhesion kinase 1 (Q05397 whole entry): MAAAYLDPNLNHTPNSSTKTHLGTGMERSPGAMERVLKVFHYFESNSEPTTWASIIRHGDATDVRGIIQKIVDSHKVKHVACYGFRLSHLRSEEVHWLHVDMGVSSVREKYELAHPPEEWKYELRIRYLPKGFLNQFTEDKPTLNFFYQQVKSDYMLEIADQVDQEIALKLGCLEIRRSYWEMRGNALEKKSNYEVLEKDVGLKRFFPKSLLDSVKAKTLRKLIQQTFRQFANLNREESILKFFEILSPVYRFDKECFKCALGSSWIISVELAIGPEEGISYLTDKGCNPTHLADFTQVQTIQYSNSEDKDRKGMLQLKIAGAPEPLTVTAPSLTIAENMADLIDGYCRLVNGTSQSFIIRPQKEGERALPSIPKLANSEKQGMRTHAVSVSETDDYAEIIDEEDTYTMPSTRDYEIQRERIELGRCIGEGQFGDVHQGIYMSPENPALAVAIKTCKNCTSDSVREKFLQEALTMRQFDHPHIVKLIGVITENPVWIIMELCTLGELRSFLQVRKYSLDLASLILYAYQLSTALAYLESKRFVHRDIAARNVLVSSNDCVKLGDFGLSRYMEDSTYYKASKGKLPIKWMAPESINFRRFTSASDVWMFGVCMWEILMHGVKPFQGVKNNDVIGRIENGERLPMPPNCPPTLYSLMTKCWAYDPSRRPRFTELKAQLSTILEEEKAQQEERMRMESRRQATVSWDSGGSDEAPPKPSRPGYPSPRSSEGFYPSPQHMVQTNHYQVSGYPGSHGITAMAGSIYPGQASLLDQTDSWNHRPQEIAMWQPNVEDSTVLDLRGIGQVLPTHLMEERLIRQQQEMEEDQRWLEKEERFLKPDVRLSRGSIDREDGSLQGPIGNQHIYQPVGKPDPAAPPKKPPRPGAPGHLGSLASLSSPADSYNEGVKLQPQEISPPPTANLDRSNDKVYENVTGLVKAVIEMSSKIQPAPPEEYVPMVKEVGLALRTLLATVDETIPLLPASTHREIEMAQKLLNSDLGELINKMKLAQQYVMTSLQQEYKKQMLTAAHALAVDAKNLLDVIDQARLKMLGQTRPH

Plasma = assay: Protein binding in Han Wistar rat plasma assessed as free drug; format: ADME, cell-free
[1] = biological target: T2, Tyrosine-protein kinase ZAP-70 (Homo sapiens, UniProt P43403); assay: Inhibition of ZAP70
T2 sequence (P43403 whole entry): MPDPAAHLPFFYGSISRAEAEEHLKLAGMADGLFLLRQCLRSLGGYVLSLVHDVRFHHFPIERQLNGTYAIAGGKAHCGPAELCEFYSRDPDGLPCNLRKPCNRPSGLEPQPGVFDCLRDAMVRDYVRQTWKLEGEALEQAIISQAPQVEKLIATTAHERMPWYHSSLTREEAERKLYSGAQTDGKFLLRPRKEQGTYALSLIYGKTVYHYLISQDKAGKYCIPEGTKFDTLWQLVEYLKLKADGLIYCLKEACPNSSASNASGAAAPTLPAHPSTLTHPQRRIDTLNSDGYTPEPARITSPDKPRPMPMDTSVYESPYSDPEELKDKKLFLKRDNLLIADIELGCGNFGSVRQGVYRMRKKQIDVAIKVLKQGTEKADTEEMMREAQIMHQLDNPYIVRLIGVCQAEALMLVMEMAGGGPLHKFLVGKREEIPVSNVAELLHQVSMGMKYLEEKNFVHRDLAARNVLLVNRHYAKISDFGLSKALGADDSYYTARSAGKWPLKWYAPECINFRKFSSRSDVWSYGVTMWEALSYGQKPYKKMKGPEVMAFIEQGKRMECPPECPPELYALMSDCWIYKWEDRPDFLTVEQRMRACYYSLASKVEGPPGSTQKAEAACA

[2] = Half life in Han Wistar rat at 5 umol/kg, po; format: ADME, organism-based; conditions: in vivo
[3] = biological target: T3, Tyrosine-protein kinase JAK3 (Homo sapiens, UniProt P52333); assay: Inhibition of JAK3
T3 sequence (P52333 whole entry): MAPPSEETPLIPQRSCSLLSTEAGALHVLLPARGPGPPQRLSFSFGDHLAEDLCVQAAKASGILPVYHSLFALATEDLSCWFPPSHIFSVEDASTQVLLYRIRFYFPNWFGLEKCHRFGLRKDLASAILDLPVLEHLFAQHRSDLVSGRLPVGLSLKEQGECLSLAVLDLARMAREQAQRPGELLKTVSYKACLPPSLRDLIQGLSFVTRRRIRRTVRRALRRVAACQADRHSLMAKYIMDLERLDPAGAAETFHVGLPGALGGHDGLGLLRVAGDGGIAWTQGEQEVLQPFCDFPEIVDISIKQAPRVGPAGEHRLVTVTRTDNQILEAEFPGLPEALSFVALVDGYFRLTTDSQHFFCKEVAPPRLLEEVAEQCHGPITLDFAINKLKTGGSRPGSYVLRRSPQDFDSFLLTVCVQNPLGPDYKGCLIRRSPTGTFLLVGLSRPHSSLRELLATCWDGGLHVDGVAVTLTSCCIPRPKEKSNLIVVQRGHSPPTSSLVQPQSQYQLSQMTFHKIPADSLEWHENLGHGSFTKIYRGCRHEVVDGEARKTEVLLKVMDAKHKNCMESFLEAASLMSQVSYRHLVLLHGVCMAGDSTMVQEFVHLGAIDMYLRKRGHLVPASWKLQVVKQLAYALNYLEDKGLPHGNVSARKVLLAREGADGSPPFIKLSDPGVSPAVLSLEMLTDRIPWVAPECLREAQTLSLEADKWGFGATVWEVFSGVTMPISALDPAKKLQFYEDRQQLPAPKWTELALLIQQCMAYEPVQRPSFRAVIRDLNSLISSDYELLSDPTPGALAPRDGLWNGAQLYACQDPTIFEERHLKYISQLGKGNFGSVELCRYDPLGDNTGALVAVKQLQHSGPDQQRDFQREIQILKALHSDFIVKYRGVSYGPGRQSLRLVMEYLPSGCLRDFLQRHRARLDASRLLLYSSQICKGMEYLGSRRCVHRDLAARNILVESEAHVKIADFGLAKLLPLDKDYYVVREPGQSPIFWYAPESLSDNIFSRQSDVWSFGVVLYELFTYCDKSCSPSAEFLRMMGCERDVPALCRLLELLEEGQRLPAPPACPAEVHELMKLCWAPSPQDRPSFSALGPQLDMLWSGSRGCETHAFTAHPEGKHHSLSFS

[4] = Inhibition of p38
[5] = Inhibition of FGF
[6] = Aqueous solubility of compound at pH 7.4; format: physicochemical
[7] = AUC in Han Wistar rat at 5 umol/kg, po; format: ADME, organism-based; conditions: plasma
[8] = Lipophilicity, Log D of compound at pH 7.4; format: physicochemical; conditions: buffer
Ephrin type-B receptor 2 = biological target: T4, Ephrin type-B receptor 2 (Homo sapiens, UniProt P29323); assay: Inhibition of EphB2
T4 sequence (P29323 whole entry): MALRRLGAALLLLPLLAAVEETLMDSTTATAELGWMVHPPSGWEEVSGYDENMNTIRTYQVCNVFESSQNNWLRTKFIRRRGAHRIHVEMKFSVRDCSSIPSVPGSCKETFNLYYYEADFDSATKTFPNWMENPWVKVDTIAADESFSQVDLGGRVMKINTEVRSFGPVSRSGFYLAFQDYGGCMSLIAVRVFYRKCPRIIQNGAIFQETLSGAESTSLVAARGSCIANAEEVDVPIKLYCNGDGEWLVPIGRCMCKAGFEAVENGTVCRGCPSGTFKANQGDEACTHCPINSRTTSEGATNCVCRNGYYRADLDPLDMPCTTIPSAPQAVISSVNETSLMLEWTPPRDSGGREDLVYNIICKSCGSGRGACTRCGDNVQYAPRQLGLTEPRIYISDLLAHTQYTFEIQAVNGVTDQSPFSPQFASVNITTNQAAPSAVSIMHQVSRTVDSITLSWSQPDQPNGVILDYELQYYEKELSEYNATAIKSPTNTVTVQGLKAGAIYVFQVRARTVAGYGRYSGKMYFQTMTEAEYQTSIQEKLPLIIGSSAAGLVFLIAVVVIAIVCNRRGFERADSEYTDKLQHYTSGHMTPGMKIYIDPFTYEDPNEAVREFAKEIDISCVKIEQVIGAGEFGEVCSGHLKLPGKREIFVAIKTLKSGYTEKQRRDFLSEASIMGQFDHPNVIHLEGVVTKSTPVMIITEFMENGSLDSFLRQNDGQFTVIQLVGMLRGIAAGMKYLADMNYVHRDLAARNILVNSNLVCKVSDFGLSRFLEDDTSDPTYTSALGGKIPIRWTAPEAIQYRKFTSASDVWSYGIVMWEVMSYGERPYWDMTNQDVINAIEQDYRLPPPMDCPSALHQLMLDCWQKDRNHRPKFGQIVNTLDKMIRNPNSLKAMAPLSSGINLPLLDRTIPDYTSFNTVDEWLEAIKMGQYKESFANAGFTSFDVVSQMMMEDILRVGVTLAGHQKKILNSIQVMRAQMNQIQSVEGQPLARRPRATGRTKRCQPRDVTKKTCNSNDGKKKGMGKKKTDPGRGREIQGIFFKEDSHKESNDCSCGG

[9] = biological target: T5, Serine/threonine-protein kinase Chk1 (Homo sapiens, UniProt O14757); assay: Inhibition of CHK1
T5 sequence (O14757 whole entry): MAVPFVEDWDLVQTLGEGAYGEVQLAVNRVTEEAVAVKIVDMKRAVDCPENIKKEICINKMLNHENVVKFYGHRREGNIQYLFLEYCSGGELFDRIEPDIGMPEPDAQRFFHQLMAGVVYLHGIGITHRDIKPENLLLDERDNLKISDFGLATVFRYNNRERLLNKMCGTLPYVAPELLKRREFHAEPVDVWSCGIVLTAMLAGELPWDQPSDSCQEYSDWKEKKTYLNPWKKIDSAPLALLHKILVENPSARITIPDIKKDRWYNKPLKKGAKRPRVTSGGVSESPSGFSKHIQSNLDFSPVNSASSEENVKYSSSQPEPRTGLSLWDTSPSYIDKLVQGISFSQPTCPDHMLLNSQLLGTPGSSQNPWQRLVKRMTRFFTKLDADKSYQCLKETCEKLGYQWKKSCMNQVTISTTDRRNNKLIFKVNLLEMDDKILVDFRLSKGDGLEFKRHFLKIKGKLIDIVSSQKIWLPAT

[10] = biological target: Proto-oncogene tyrosine-protein kinase Src (Homo sapiens, UniProt P12931); assay: Inhibition of Src
Chain of Proto-oncogene tyrosine-protein kinase Src (P12931 2-536 limits assumed): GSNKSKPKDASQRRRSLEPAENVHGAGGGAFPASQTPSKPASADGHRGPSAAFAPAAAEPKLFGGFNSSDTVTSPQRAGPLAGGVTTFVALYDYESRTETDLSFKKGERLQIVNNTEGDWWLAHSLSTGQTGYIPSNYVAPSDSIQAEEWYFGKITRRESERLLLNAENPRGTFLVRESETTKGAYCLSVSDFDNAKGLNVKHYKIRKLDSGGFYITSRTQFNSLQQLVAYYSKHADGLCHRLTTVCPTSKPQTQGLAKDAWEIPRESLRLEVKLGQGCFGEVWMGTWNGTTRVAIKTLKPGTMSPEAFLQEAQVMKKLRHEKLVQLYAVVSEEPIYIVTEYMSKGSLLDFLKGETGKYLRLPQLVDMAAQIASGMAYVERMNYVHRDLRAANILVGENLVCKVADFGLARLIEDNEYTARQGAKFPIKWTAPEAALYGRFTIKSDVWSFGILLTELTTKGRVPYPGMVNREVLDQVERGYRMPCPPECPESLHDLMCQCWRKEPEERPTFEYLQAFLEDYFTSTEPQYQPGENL

[11] = Clearance in Han Wistar rat at 5 umol/kg, po or 0.5 umol/kg, iv; format: ADME, organism-based; conditions: in vivo
[12] = biological target: Tyrosine-protein kinase CSK (Homo sapiens, UniProt P41240); assay: Inhibition of CSK
Chain of Tyrosine-protein kinase CSK (P41240 whole entry): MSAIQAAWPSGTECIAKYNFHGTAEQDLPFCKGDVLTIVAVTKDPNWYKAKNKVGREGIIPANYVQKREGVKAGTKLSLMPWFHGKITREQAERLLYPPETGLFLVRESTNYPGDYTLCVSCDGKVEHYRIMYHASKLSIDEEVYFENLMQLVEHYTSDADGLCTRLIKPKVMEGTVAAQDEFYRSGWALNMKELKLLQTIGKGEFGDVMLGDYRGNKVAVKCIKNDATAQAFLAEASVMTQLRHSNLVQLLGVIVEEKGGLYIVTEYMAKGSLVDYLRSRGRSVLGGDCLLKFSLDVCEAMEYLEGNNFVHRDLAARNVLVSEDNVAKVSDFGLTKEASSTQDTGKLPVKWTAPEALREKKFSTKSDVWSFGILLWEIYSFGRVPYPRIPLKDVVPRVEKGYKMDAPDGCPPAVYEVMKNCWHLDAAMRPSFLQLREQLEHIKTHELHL

[13] = Volume of distribution at steady state in Han Wistar rat at 5 umol/kg, po or 0.5 umol/kg, iv; format: ADME, organism-based; conditions: in vivo, read-out: Vdss
[14] = Bioavailability in Han Wistar rat at 5 umol/kg, po; format: ADME, organism-based; conditions: in vivo
[15] = biological target: Cyclin-dependent kinase 2 (Homo sapiens, UniProt P24941); assay: Inhibition of CDK2
[16] = Inhibition of JNK
[17] = biological target: Insulin-like growth factor 1 receptor (Homo sapiens, UniProt P08069); assay: Inhibition of IGF
Chain of Insulin-like growth factor 1 receptor (P08069 31-736 limits assumed): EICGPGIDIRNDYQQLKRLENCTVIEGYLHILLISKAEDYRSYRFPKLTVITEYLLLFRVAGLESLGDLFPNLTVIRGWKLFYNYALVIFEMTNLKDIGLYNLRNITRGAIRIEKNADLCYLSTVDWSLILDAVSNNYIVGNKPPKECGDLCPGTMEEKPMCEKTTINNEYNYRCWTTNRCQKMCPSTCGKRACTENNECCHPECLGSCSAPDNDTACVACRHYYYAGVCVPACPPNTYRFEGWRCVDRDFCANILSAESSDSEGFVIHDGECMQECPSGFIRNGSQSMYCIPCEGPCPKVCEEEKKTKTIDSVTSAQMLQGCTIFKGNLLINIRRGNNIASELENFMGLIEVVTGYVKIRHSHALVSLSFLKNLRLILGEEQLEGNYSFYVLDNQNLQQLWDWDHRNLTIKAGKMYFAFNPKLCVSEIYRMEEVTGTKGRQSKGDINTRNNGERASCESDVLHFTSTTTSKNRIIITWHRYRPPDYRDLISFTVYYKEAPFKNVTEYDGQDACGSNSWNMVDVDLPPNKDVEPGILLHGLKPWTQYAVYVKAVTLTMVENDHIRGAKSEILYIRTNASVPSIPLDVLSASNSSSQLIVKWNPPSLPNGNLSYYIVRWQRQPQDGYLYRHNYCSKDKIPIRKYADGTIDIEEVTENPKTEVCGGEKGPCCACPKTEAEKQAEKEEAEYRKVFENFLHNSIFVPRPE
Chain of Insulin-like growth factor 1 receptor (P08069 741-1367 limits assumed): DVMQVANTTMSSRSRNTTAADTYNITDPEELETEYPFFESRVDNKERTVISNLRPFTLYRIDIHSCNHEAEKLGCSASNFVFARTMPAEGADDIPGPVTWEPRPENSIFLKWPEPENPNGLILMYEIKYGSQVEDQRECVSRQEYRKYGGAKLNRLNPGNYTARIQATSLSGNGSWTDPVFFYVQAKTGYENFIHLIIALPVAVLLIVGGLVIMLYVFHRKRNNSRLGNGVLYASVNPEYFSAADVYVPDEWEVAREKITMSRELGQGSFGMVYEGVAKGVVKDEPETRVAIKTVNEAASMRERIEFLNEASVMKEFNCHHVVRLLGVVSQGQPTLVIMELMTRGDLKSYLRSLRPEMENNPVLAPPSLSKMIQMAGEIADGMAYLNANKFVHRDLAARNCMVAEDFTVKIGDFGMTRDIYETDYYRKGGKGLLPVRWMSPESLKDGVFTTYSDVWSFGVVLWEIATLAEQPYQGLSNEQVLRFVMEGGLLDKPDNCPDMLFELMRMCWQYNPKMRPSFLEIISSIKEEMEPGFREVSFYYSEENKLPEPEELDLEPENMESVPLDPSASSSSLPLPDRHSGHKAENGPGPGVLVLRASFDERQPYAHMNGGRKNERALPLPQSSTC

[18] = biological target: Serine/threonine-protein kinase PLK1 (Homo sapiens, UniProt P53350); assay: Inhibition of PLK
Chain of Serine/threonine-protein kinase PLK1 (P53350 whole entry): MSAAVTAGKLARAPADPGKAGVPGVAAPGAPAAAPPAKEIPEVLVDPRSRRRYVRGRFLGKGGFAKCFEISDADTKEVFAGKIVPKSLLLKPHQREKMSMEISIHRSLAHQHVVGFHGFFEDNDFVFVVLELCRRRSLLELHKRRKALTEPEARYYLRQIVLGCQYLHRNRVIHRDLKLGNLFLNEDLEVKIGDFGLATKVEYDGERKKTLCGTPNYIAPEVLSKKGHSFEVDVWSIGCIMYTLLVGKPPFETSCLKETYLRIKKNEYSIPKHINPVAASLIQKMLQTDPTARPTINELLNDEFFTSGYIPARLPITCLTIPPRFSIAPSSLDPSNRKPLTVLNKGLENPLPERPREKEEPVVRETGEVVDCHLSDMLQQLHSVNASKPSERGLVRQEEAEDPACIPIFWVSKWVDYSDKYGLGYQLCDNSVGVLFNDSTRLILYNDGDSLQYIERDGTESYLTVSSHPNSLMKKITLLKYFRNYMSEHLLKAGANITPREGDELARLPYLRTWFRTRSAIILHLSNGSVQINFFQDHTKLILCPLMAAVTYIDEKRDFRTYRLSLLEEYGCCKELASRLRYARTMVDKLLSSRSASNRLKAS

[19] = biological target: Vascular endothelial growth factor receptor 2 (Homo sapiens, UniProt P35968); assay: Inhibition of KDR
[20] = Inhibition of PKA

With `Clc1ccc2c(c1Nc1ccnc(Nc3ccc(N4CCOCC4)cc3)n1)OCO2` the IC50 (Ephrin type-B receptor 4) was 1 µM.

In the case of `COc1cccc(Nc2nccc(Nc3c(Cl)ccc4c3OCO4)n2)c1`, the IC50 (Ephrin type-B receptor 4) is reported as 0.64 µM.

For `CS(=O)(=O)c1cccc(Nc2nccc(Nc3c(Cl)ccc4c3OCO4)n2)c1`, the IC50 (Focal adhesion kinase 1) was 19.7 µM, the Fu (Plasma) was 0.74% and the IC50 [1] was > 30 µM. It also gave a half-life [2] of 5.3 h, an IC50 [3] of 20.5 µM and an IC50 [4] of 27.1 µM. The IC50 [5] was > 30 µM, the solubility [6] was 30 µM (≈ 12.6 µg/mL) and the AUC [7] was 4 µM·h. For the same compound, the logD [8] was 3.13, the IC50 (Ephrin type-B receptor 2) was 0.05 µM and the IC50 [9] was > 30 µM. The IC50 [10] was < 0.1 µM, the clearance [11] was 0.366 L/h/kg and the IC50 [12] was 10.7 µM. The Vd [13] was 0.5 L/kg, the bioavailability [14] was 30% and the IC50 [15] was 17.6 µM. For the same compound, the IC50 [16] was > 30 µM, the IC50 [17] was > 30 µM and the IC50 [18] was > 30 µM. For the same compound, the IC50 [19] was > 30 µM and the IC50 [20] was > 30 µM.

With `Fc1ccc(Nc2nccc(Nc3c(Cl)ccc4c3OCO4)n2)cc1` the IC50 (Ephrin type-B receptor 4) was 2.3 µM.

Compound `Fc1cccc(Nc2nccc(Nc3c(Cl)ccc4c3OCO4)n2)c1` has an IC50 (Ephrin type-B receptor 4) of 1.15 µM.

In the case of `NS(=O)(=O)c1ccc(Nc2nccc(Nc3c(Cl)ccc4c3OCO4)n2)cc1`, the IC50 (Ephrin type-B receptor 4) is reported as 0.3 µM.

`Cc1ccc(Nc2nccc(Nc3c(Cl)ccc4c3OCO4)n2)cc1` gave an IC50 (Ephrin type-B receptor 4) of 1.6 µM.

`N#Cc1ccccc1Nc1nccc(Nc2c(Cl)ccc3c2OCO3)n1` showed an IC50 (Ephrin type-B receptor 4) of 20.5 µM.

Compound `NS(=O)(=O)c1ccccc1Nc1nccc(Nc2c(Cl)ccc3c2OCO3)n1` has an IC50 (Ephrin type-B receptor 4) of 35.5 µM.

With `Cc1ccccc1Nc1nccc(Nc2c(Cl)ccc3c2OCO3)n1` the IC50 (Ephrin type-B receptor 4) was 14 µM.

Compound `CS(=O)(=O)c1ccc(Nc2nccc(Nc3c(Cl)ccc4c3OCO4)n2)cc1` has an IC50 (Ephrin type-B receptor 4) of 0.63 µM.

With `Cc1cccc(Nc2nccc(Nc3c(Cl)ccc4c3OCO4)n2)c1` the IC50 (Ephrin type-B receptor 4) was 0.46 µM.

Compound `Clc1cccc(Nc2nccc(Nc3c(Cl)ccc4c3OCO4)n2)c1` has an IC50 (Ephrin type-B receptor 4) of 1.33 µM.
